Consider 27 compounds from patent publication US9409884B2 (Rigel Pharmaceuticals, Inc., priority 2012, dated 2016).

As a reminder, the EC50 is the concentration giving half of the maximal effect.

The assay has as its target AMPK. The assay is described as follows: AMPK activation, enzyme-linked immunosorbent assay. In kind it is biochemical. Conditions: Table 13, compounds of Table 6. In short, it runs like this: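 AMPK activation by test compounds was measured by enzyme-linked immunosorbent assay.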
`N#Cc1ccc(CN2CCC(NC(=O)c3cc4cc(C(=O)N5CCN(Cc6ccc(S(=O)(=O)C7CC7)cc6)CC5)ccc4o3)CC2)cc1` [Compound 6-104, N-(1-(4-cyanobenzyl)piperidin-4-yl)-5-(4-(4-(cyclopropylsulfonyl)benzyI)piperazine-1-carbonyl) benzofuran-2-carboxamide] registered an EC50 of under 100 nM. In the case of `CS(=O)(=O)c1ccc(CN2CCN(C(=O)c3ccc4oc(C(=O)NC5CCN(Cc6ccc(C#N)cc6)CC5)cc4c3)CC2)cc1C(F)(F)F` [Compound 6-105, N-(1-(4-cyanobenzyl)piperidin-4-yl)-5-(4-(4-(methylsulfonyl)-3-(trifluoromethyl)benzyl)piperazine-1-carbonyl) benzofuran-2-carboxamide], the EC50 was under 100 nM. Turning to `COc1ccc(N2CCN(C(=O)c3ccc4oc(C(=O)NC5CCN(Cc6ccc(C#N)cc6)CC5)cc4c3)CC2)cc1` [Compound 6-106, N-(1-(4-cyanobenzyl)piperidin-4-yl)-5-(4-(4-methoxyphenyl)piperazine-1-carbonyl)benzofuran-2-carboxamide], the EC50 was under 100 nM. Next, `N#Cc1ccc(CN2CCC(NC(=O)c3cc4cc(C(=O)N5CCN(c6ccc(C#N)cc6)CC5)ccc4o3)CC2)cc1` [Compound 6-107, N-(1-(4-cyanobenzyl)piperidin-4-yl)-5-(4-(4-cyanophenyl)piperazine-1-carbonyl)benzofuran-2-carboxamide]: under 100 nM; `CC(C)S(=O)(=O)c1ccc(N2CCN(C(=O)c3ccc4oc(C(=O)NC5CCN(Cc6ccc(C#N)cc6)CC5)cc4c3)CC2)cc1` [Compound 6-108, N-(1-(4-cyanobenzyl)piperidin-4-yl)-5-(4-(4-(isopropylsulfonyl)phenyl)piperazine-1-carbonyl) benzofuran-2-carboxamide]: under 100 nM; `N#Cc1ccc(CN2CCC(NC(=O)c3cc4cc(C(=O)N5CCN(c6ccc(C(=O)C7CC7)cc6)CC5)ccc4o3)CC2)cc1` [Compound 6-109, N-(1-(4-cyanobenzyl)piperidin-4-yl)-5-(4-(4-(cyclopropanecarbonyl)phenyl)piperazine-1-carbonyl)benzofuran-2-carboxamide]: under 100 nM. Next, `CN(C)C(=O)c1ccc(N2CCN(C(=O)c3ccc4oc(C(=O)NC5CCN(Cc6ccc(C#N)cc6)CC5)cc4c3)CC2)cc1` [Compound 6-110, N-(1-(4-cyanobenzyl)piperidin-4-yl)-5-(4-(4-(dimethylcarbamoyl)phenyl)piperazine-1-carbonyl) benzofuran-2-carboxamide]: 100 to 1000 nM. As for `CS(=O)(=O)c1ccc(CN2CCN(C(=O)c3ccc4oc(C(=O)NC5CCN(Cc6ccc(C#N)cc6)CC5)cc4c3)CC2)cc1OC(F)(F)F` [Compound 6-111, N-(1-(4-cyanobenzyl)piperidin-4-yl)-5-(4-(4-(methylsulfonyl)-3-(trifluoromethoxy)benzyl)piperazine-1-carbonyl) benzofuran-2-carboxamide], the figure is 100 to 1000 nM; as for `CS(=O)(=O)c1ccc(CN2CCN(C(=O)c3ccc4oc(C(=O)NC5CCN(Cc6ccc(C#N)cc6)CC5)cc4c3)CC2)cc1Cl` [Compound 6-112, 5-(4-(3-chloro-4-(methylsulfonyl)benzyl)piperazine-1-carbonyl)-N-(1-(4-cyanobenzyl)piperidin-4-yl)benzofuran-2-carboxamide], under 100 nM; as for `CS(=O)(=O)c1ccc(O[C@H]2CCN(C(=O)c3ccc4oc(C(=O)NC5CCN(Cc6ccc(C#N)cc6)CC5)cc4c3)C[C@@H]2F)cc1` [Compound 6-113, N-(1-(4-cyanobenzyl)piperidin-4-yl)-5-((3,4-trans)-3-fluoro-4-(4-(methylsulfonyl)phenoxy)piperidine-1-carbonyl) benzofuran-2-carboxamide], under 100 nM. In the case of `COc1ccc(CN2CCC(NC(=O)c3cc4cc(C(=O)N5CC[C@H](Oc6ccc(S(C)(=O)=O)cc6)[C@@H](F)C5)ccc4o3)CC2)cc1` [Compound 6-114, 5-((3,4-trans)-3-fluoro-4-(4-(methylsulfonyl)phenoxy)piperidine-1-carbonyl)-N-(1-(4-methoxybenzyl)piperidin-4-yl) benzofuran-2-carboxamide], the EC50 was under 100 nM. Next, `CS(=O)(=O)c1ccc(O[C@H]2CCN(C(=O)c3ccc4oc(C(=O)NC5CCN(Cc6ccc(OC(F)(F)F)cc6)CC5)cc4c3)C[C@@H]2F)cc1` [Compound 6-115, 5-((3,4-trans)-3-fluoro-4-(4-(methylsulfonyl)phenoxy)piperidine-1-carbonyl)-N-(1-(4-(trifluoromethoxy)benzyl)piperidin-4-yl)benzofuran-2-carboxamide]: under 100 nM; `N#Cc1ccc(CN2CCC(NC(=O)c3cc4cc(C(=O)N5CCN(c6ccc(C(F)(F)F)cc6)CC5)ccc4o3)CC2)cc1` [Compound 6-116, N-(1-(4-cyanobenzyl)piperidin-4-yl)-5-(4-(4-(trifluoromethyl)phenyl)piperazine-1-carbonyl) benzofuran-2-carboxamide]: under 100 nM; `N#Cc1ccc(CN2CCC(NC(=O)c3cc4cc(C(=O)N5CCN(c6cc(C(F)(F)F)cc(C(F)(F)F)c6)CC5)ccc4o3)CC2)cc1` [Compound 6-117, 5-(4-(3,5-bis(trifluoromethyl)phenyl)piperazine-1-carbonyl)-N-(1-(4-cyanobenzyl)piperidin-4-yl)benzofuran-2-carboxamide]: 1000 to 10000 nM. As for `N#Cc1ccc(CN2CCC(NC(=O)c3cc4cc(C(=O)N5CCN(c6ccc(Cl)cc6Cl)CC5)ccc4o3)CC2)cc1` [Compound 6-118, N-(1-(4-cyanobenzyl)piperidin-4-yl)-5-(4-(2,4-dichlorophenyl)piperazine-1-carbonyl)benzofuran-2-carboxamide], the figure is under 100 nM; as for `COc1ccc(CN2CCC(NC(=O)c3cc4cc(C(=O)N5CCN(c6ccc(C(F)(F)F)cc6)CC5)ccc4o3)CC2)cc1` [Compound 6-119, N-(1-(4-methoxybenzyl)piperidin-4-yl)-5-(4-(4-(trifluoromethyl)phenyl)piperazine-1-carbonyl) benzofuran-2-carboxamide], under 100 nM; as for `COc1ccc(CN2CCC(NC(=O)c3cc4cc(C(=O)N5CCN(c6cc(C(F)(F)F)cc(C(F)(F)F)c6)CC5)ccc4o3)CC2)cc1` [Compound 6-120, 5-(4-(3,5-bis(trifluoromethyl)phenyl)piperazine-1-carbonyl)-N-(1-(4-methoxybenzyl)piperidin-4-yl)benzofuran-2-carboxamide], under 100 nM.

`COc1ccc(CN2CCC(NC(=O)c3cc4cc(C(=O)N5CCN(c6ccc(Cl)cc6Cl)CC5)ccc4o3)CC2)cc1` [Compound 6-121, 5-(4-(2,4-dichlorophcnyl)piperazine-1-carbonyl)-N-(1-(4-methoxybenzyl)piperidin-4-yl)benzofuran-2-carboxamide]: the EC50 was under 100 nM. In the case of `N#Cc1ccc(CN2CCC(NC(=O)c3cc4cc(C(=O)N5CCC(S(=O)(=O)c6ccc(F)cc6)CC5)ccc4o3)CC2)cc1` [Compound 6-122, N-(1-(4-cyanobenzyl)piperidin-4-yl)-5-(4-(4-fluorophenylsulfonyl)piperidine-1-carbonyl) benzofuran-2-carboxamide], the EC50 lay within 100 to 1000 nM. As for `CS(=O)(=O)c1ccc(CN2CCN(C(=O)c3ccc4oc(C(=O)NC5CCN(Cc6ccc(C#N)cc6)CC5)cc4c3)CC2)cc1` [Compound 6-123, N-(1-(4-cyanobenzyl)piperidin-4-yl)-5-(4-(4-(methylsulfonyl)benzyl)piperazine-1-carbonyl) benzofuran-2-carboxamide], the figure is under 100 nM; as for `N#Cc1ccc(CN2CCC(NC(=O)c3cc4cc(C(=O)N5CCC(Oc6ccc(S(=O)(=O)C(F)(F)F)cc6)CC5)ccc4o3)CC2)cc1` [Compound 6-124, N-(1-(4-cyanobenzyl)piperidin-4-yl)-5-(4-(4-(trifluoromethylsulfonyl)phenoxy)piperidine-1-carbonyl)benzofuran-2-carboxamide], under 100 nM. As for `COc1ccc(-c2cnn(C3CCN(C(=O)c4ccc5oc(C(=O)NC6CCN(Cc7ccc(C#N)cc7)CC6)cc5c4)CC3)c2)cc1` [Compound 6-125, N-(1-(4-cyanobenzyl)piperidin-4-yl)-5-(4-(4-(4-methoxyphenyl)-1H-pyrazol-1-yl)piperidine-1-carbonyl)benzofuran-2-carboxamide], the figure is under 100 nM. Next, `Cc1cc2oc(C(=O)NC3CCN(Cc4ccc(C#N)cc4)CC3)cc2cc1NC(=O)C1CCN(c2ccc(C#N)cc2)CC1` [Compound 6-126, N-(2-(1-(4-cyanobenzyl)piperidin-4-ylcarbamoyl)-6-methylbenzofuran-5-yl)-1-(4-cyanophenyl)piperidine-4-carboxamide]: under 100 nM; `N#Cc1ccc(CN2CCC(NC(=O)c3cc4cc(C(=O)N5CCN(Cc6ccc(C(F)(F)F)cc6)CC5)ccc4o3)CC2)cc1` [Compound 6-127, N-(1-(4-cyanobenzyl)piperidin-4-yl)-5-(4-(4-(trifluoromethyl)benzyl)piperazine-1-carbonyl) benzofuran-2-carboxamide]: under 100 nM.

In turn, `N#Cc1ccc(CN2CCC(NC(=O)c3cc4cc(C(=O)N5CCN(Cc6ccc(S(=O)(=O)C(F)(F)F)cc6)CC5)ccc4o3)CC2)cc1` [Compound 6-128, N-(1-(4-cyanobenzyl)piperidin-4-yl)-5-(4-(4-(trifluoromethylsulfonyl)benzyl)piperazine-1-carbonyl)benzofuran-2-carboxamide] gave an EC50 of under 100 nM.

`COc1ccc(CN2CCC(NC(=O)c3cc4cc(C(=O)N5CCN(Cc6ccc(C(F)(F)F)cc6)CC5)ccc4o3)CC2)cc1F` [Compound 6-129, N-(1-(3-fluoro-4-methoxybenzyl)piperidin-4-yl)-5-(4-(4-(trifluoromethyl)benzyl)piperazine-1-carbonyl) benzofuran-2-carboxamide] yielded an EC50 of under 100 nM. Next, `COc1ccc(CN2CCC(NC(=O)c3cc4cc(C(=O)N5CCN(Cc6ccc(S(C)(=O)=O)c(C)c6)CC5)ccc4o3)CC2)cc1F` [Compound 6-130, N-(1-(3-fluoro-4-methoxybenzyl)piperidin-4-yl)-5-(4-(3-methyl-4-(methylsulfonyl)benzyl)piperazine-1-carbonyl) benzofuran-2-carboxamide]: under 100 nM.
